Earlier results on 1 compound are cited in US20240325295A1, “AQUEOUS BUMETANIDE-CONTAINING LIQUID” (DriPel B.V., priority 2021, published 2024).

The conditions of data set [1]: at 25° C.
For data set [2] the following is noted: at 4° C.

≈ marks a conversion by molar mass, not a printed value.

With `CCCCNc1cc(C(=O)O)cc(S(N)(=O)=O)c1Oc1ccccc1` [Bumetanide], in data set [1], the water solubility was 0.026 mg/mL (≈ 0.0713 mM). The solubility in glycofurol in data set [2] (glycofurol) is reported as 167 mg/mL (≈ 458 mM). Also, the “solubility in polyethylene glycol 200” value in data set [2] (polyethylene glycol 200) is on record as 143 mg/mL (≈ 392 mM).
